According to ChEMBL document CHEMBL6114968, “Discovery of BW710 as a potent, selective and orally bioavailable fibroblast growth factor receptor 2 (FGFR2) inhibitor” (Eur J Med Chem, 2025):
pIC50: −log10 of the molar value.

Columns and labels:
[1] = test system: BaF3; test: Antiproliferative activity against mouse BaF3 cells expressing FGFR2 incubated for 72 hrs by CCK-8 assay; assay type: functional, cell-based; conditions: BaF3, 72 h
[2] = test system: MDA-MB-453; test: Antiproliferative activity against human MDA-MB-453 cells harboring FGFR4-Y367C measured after 72 hrs by CCK-8 assay; assay type: functional, cell-based; conditions: MDA-MB-453, 72 h
[3] = Antiproliferative activity against human RT-112 cells harboring FGFR3-TACC3 measured after 72 hrs by CCK-8 assay; assay type: functional, cell-based; conditions: RT-112, 72 h
[4] = test system: A204; test: Antiproliferative activity against FGFR1 amplified human A204 cells measured after 72 hrs by CCK-8 assay; assay type: functional, cell-based; conditions: A204, 72 h
[5] = Antiproliferative activity against FGFR2 amplified human SNU-16 cells measured after 72 hrs by CCK-8 assay; assay type: functional, cell-based; conditions: SNU-16, 72 h
[6] = Antiproliferative activity against FGFR2 amplified human KATO III stomach cancer cell line measured after 72 hrs by CCK-8 assay; assay type: functional, cell-based
[7] = test system: BaF3; test: Antiproliferative activity against mouse BaF3 cells incubated for 72 hrs by CCK-8 assay; conditions: BaF3, 72 h
[8] = test system: BaF3; test: Antiproliferative activity against mouse BaF3 cells expressing FGFR1 incubated for 72 hrs by CCK-8 assay; assay type: functional, cell-based; conditions: BaF3, 72 h
[9] = Selectivity ratio of IC50 for antiproliferative activity against mouse BaF3 cells expressing FGFR1 to IC50 for antiproliferative activity against mouse BaF3 cells expressing FGFR2; assay type: functional
[10] = Oral bioavailability in mouse at 10 mg/kg; assay type: ADME, organism-based; conditions: in vivo
[11] = Clearance in mouse at 1 mg/kg, iv; assay type: ADME, organism-based; conditions: in vivo
[12] = Half life in mouse at 1 mg/kg, iv; assay type: ADME, organism-based; conditions: in vivo
[13] = MRT(0 to t) in mouse at 10 mg/kg, po; assay type: ADME, organism-based; conditions: in vivo
[14] = molecular target: Fibroblast growth factor receptor 4 (Homo sapiens) (UniProt P22455); test: Inhibition of FGFR4 (unknown origin) at 1 uM by KINOMEscan analysis relative to control
[15] = Cmax in mouse at 10 mg/kg, po; assay type: ADME, organism-based; conditions: in vivo
[16] = AUC(0 to t) in mouse at 1 mg/kg, iv; assay type: ADME, organism-based; conditions: in vivo
[17] = molecular target: Fibroblast growth factor receptor 2 (Homo sapiens) (UniProt P21802); test: Inhibition of FGFR2 in human SNU-16 cells assessed as decrease in Akt phosphorylation at Ser473 residue incubated for 1 hr by Western blot analysis; assay type: cell-based; conditions: dose 0.5-100 nM
[18] = molecular target: Fibroblast growth factor receptor 1 (Homo sapiens) (UniProt P11362); test: Inhibition of FGFR1 (unknown origin) at 1 uM by KINOMEscan analysis relative to control
[19] = Cmax in mouse at 1 mg/kg, iv; assay type: ADME, organism-based; conditions: in vivo
[20] = molecular target: Fibroblast growth factor receptor 2 (Homo sapiens) (UniProt P21802); test: Inhibition of FGFR2 in human SNU-16 cells assessed as decrease in FRS2-alpha phosphorylation at Tyr436 residue incubated for 1 hr by Western blot analysis; assay type: cell-based; conditions: dose 0.5-100 nM
[21] = molecular target: Fibroblast growth factor receptor 2 (Homo sapiens) (UniProt P21802); test: Inhibition of FGFR2 phosphorylation in human SNU-16 cells incubated for 1 hr by Western blot analysis; assay type: cell-based; conditions: dose 0.5-100 nM
[22] = molecular target: Fibroblast growth factor receptor 2 (Homo sapiens) (UniProt P21802); test: Inhibition of FGFR2 (unknown origin) at 1 uM by KINOMEscan analysis relative to control
[23] = Half life in mouse at 10 mg/kg, po; assay type: ADME, organism-based; conditions: in vivo
[24] = molecular target: Fibroblast growth factor receptor 2 (Homo sapiens) (UniProt P21802); test: Inhibition of FGFR2 in human SNU-16 cells assessed as decrease in ERK1/2 phosphorylation incubated for 1 hr by Western blot analysis; assay type: cell-based; conditions: dose 0.5-100 nM
[25] = MRT(0 to t) in mouse at 1 mg/kg, iv; assay type: ADME, organism-based; conditions: in vivo
[26] = molecular target: Fibroblast growth factor receptor 3 (Homo sapiens) (UniProt P22607); test: Inhibition of FGFR3 (unknown origin) at 1 uM by KINOMEscan analysis relative to control
[27] = AUC(0 to t) in mouse at 10 mg/kg, po; assay type: ADME, organism-based; conditions: in vivo

Sequence of Fibroblast growth factor receptor 2 (Homo sapiens) (P21802 22-821 limits assumed): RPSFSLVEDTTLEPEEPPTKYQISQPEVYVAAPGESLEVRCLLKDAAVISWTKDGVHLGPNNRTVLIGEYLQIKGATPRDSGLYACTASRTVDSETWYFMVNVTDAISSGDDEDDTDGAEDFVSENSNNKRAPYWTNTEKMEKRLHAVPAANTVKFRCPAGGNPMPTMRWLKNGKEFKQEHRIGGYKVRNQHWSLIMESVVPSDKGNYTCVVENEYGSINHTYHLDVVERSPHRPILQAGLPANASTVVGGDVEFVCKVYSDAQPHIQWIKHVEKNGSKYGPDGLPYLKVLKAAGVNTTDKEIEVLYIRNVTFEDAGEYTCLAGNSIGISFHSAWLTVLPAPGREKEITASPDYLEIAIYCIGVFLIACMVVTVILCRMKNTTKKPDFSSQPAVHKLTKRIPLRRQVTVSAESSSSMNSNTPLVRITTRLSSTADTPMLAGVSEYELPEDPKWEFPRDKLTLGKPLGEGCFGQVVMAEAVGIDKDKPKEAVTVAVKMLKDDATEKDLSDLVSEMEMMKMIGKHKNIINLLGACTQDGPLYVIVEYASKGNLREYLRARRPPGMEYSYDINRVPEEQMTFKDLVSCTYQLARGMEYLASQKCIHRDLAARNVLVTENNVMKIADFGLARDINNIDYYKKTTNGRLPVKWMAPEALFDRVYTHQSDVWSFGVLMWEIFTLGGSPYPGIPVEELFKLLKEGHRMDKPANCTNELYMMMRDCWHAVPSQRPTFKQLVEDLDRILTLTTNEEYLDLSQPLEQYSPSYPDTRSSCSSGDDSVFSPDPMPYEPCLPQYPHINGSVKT
Sequence of Fibroblast growth factor receptor 1 (Homo sapiens) (P11362 22-822 limits assumed): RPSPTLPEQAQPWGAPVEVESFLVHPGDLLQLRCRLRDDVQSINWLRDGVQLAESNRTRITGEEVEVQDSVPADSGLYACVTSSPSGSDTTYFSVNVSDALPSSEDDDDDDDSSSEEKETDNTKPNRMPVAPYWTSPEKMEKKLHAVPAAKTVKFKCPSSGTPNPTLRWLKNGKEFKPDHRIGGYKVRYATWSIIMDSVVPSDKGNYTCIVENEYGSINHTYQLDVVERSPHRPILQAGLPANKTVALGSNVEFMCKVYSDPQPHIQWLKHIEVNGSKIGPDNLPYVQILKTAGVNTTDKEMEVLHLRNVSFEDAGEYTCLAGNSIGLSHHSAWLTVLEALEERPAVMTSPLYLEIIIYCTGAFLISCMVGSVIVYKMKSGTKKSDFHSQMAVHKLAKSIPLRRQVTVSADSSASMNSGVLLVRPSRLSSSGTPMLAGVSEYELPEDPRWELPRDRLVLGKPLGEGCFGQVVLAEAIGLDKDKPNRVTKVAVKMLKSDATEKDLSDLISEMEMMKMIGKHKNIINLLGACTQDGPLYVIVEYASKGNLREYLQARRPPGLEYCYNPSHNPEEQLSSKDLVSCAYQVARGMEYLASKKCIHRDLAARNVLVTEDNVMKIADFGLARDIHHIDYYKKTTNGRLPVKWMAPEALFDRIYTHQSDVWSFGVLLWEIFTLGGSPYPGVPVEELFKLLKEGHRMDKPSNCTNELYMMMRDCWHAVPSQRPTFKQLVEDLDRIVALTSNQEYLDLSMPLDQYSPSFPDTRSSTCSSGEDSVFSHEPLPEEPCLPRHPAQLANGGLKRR
Sequence of Fibroblast growth factor receptor 4 (Homo sapiens) (P22455 22-802 limits assumed): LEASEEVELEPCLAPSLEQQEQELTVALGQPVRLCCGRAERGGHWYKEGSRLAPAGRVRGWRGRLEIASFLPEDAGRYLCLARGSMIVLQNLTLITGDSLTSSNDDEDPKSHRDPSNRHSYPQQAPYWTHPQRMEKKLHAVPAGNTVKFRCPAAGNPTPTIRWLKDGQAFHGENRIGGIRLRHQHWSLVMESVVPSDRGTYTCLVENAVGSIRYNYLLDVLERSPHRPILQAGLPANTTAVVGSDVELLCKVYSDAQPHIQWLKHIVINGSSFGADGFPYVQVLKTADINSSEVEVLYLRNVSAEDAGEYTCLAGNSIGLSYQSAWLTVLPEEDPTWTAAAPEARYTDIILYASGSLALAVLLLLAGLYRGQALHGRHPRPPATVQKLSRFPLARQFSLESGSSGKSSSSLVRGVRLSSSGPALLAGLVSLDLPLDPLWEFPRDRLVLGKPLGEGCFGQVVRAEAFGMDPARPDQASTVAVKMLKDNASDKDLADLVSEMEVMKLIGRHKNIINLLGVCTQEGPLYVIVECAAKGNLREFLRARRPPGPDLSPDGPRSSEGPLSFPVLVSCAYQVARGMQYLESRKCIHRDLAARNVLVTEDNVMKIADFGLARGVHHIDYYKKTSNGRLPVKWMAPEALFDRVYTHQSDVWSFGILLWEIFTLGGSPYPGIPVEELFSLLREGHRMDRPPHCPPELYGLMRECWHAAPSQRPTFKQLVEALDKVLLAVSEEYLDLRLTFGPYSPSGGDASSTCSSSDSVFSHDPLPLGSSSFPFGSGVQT
Sequence of Fibroblast growth factor receptor 3 (Homo sapiens) (P22607 23-806 limits assumed): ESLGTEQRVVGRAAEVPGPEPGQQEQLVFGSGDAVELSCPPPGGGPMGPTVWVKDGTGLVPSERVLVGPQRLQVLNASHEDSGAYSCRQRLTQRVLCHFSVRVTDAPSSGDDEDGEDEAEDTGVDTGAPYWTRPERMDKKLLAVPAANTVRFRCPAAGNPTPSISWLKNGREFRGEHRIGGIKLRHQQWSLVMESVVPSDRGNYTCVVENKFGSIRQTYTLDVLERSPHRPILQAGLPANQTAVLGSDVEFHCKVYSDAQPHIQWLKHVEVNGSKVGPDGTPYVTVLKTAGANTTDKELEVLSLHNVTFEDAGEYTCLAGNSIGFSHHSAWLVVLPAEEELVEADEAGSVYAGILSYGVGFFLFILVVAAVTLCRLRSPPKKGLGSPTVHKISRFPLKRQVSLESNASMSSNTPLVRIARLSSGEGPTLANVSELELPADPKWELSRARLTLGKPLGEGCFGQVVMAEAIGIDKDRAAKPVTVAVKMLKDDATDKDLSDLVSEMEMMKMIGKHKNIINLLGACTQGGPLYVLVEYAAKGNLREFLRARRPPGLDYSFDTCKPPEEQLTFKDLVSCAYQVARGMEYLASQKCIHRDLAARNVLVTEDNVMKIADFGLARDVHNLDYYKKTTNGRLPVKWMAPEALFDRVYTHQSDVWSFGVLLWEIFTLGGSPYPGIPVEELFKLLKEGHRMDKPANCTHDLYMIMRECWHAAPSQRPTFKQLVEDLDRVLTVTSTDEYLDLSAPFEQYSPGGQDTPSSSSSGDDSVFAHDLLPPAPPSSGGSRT

CCN1C(=O)N(c2c(F)c(OC)cc(OC)c2F)Cc2cnc3[nH]c(CN4CCOCC4)cc3c21 [PEMIGATINIB]
pIC50 [1]: 8.70 | pIC50 [2]: 6.82 | pIC50 [3]: 7.96 | pIC50 [4]: 7.53 | pIC50 [5]: 8.96 | pIC50 [6]: 8.74 | pIC50 [7]: < 6.00 | pIC50 [8]: 7.70

C=CC(=O)Nc1ccc(-c2c(-c3ccc(S4(=O)=NCCCC4)cc3)c3c(N)ncnc3n2C)cc1 (stereo unspecified)
pIC50 [1]: 7.92 | pIC50 [7]: < 6.00 | pIC50 [8]: < 6.00

C=CC(=O)Nc1ccc(-c2c(-c3ccc(S(=N)(=O)C4CCCC4)cc3)c3c(N)ncnc3n2C)cc1 (stereo unspecified)
pIC50 [1]: 8.18 | pIC50 [7]: < 6.00 | pIC50 [8]: 6.05

C=CC(=O)Nc1ccc(-c2c(-c3ccc(S(C)(=O)=Nc4ccccc4)cc3)c3c(N)ncnc3n2C)cc1 (stereo unspecified)
pIC50 [1]: 7.00 | pIC50 [7]: < 6.00 | pIC50 [8]: 6.37

C=CC(=O)Nc1ccc(-c2c(-c3ccc(S4(=O)=NCCCCC4)cc3)c3c(N)ncnc3n2C)cc1 (stereo unspecified)
Ratio IC50 [9]: >279 | pIC50 [1]: 8.96 | pIC50 [7]: < 6.00 | pIC50 [8]: 6.51

C=CC(=O)Nc1ccc(-c2c(-c3ccc(S(=N)(=O)C4CCCCC4)cc3)c3c(N)ncnc3n2C)cc1 (stereo unspecified)
pIC50 [1]: 8.05 | pIC50 [7]: < 6.00 | pIC50 [8]: 6.10

C=CC(=O)Nc1ccc(-c2c(-c3ccc(S(C)(=O)=NC4CC4)cc3)c3c(N)ncnc3n2C)cc1 (stereo unspecified)
pIC50 [1]: 6.97 | pIC50 [7]: < 6.00 | pIC50 [8]: < 6.00

C=CC(=O)Nc1ccc(-c2c(-c3ccc(S(C)(=O)=NCC)cc3)c3c(N)ncnc3n2C)cc1 (stereo unspecified)
pIC50 [1]: 6.82 | pIC50 [7]: < 6.00 | pIC50 [8]: < 6.00

C=CC(=O)Nc1ccc(-c2c(-c3ccc(S(=N)(=O)C4CCC4)cc3)c3c(N)ncnc3n2C)cc1 (stereo unspecified)
pIC50 [1]: 7.34 | pIC50 [7]: < 6.00 | pIC50 [8]: < 6.00

C=CC(=O)Nc1ccc(-c2c(-c3ccc(S(=N)(=O)CCC)cc3)c3c(N)ncnc3n2C)cc1 (stereo unspecified)
pIC50 [1]: 7.15 | pIC50 [7]: < 6.00 | pIC50 [8]: < 6.00

C=CC(=O)Nc1ccc(-c2c(-c3ccc(S4(=O)=NCCOCC4)cc3)c3c(N)ncnc3n2C)cc1 (stereo unspecified)
pIC50 [1]: 6.51 | pIC50 [7]: < 6.00 | pIC50 [8]: < 6.00

C=C(C)C(=O)Nc1ccc(-c2c(-c3ccc(S4(=O)=NCCCCC4)cc3)c3c(N)ncnc3n2C)cc1F (stereo unspecified)
pIC50 [1]: 6.97 | pIC50 [7]: < 6.00 | pIC50 [8]: < 6.00

C=CC(=O)Nc1ccc(-c2c(-c3ccc(S(=N)(=O)CC(C)(C)C)cc3)c3c(N)ncnc3n2C)cc1 (stereo unspecified)
pIC50 [1]: 8.54 | pIC50 [7]: < 6.00 | pIC50 [8]: 6.16

C=CC(=O)Nc1ccc(-c2c(-c3ccc(S4(=O)=NCCCCC45CC5)cc3)c3c(N)ncnc3n2C)cc1 (stereo unspecified)
pIC50 [1]: 8.44 | pIC50 [7]: < 6.00 | pIC50 [8]: 6.41

C=CC(=O)Nc1ccc(-c2c(-c3ccc(S4(=O)=NCCC4)cc3)c3c(N)ncnc3n2C)cc1 (stereo unspecified)
pIC50 [1]: 7.92 | pIC50 [7]: < 6.00 | pIC50 [8]: < 6.00

CCC(=O)Nc1ccc(-c2c(-c3ccc(S4(=O)=NCCCCC4)cc3)c3c(N)ncnc3n2C)c(F)c1 (stereo unspecified)
pIC50 [1]: < 6.00 | pIC50 [2]: 5.38 | pIC50 [3]: < 5.00 | pIC50 [4]: < 5.00 | pIC50 [5]: 5.89 | pIC50 [6]: 5.66 | pIC50 [7]: < 6.00 | pIC50 [8]: < 6.00

C=C(C)C(=O)Nc1ccc(-c2c(-c3ccc(S4(=O)=NCCCCC4)cc3)c3c(N)ncnc3n2C)cc1 (stereo unspecified)
pIC50 [1]: 7.84 | pIC50 [7]: < 6.00 | pIC50 [8]: < 6.00

C=CC(=O)Nc1ccc(-c2c(-c3ccc(S(=N)(=O)C4CC4)cc3)c3c(N)ncnc3n2C)cc1 (stereo unspecified)
pIC50 [1]: 7.21 | pIC50 [7]: < 6.00 | pIC50 [8]: < 6.00

C=CC(=O)Nc1ccc(-c2c(-c3ccc(S(=N)(=O)CC(C)C)cc3)c3c(N)ncnc3n2C)cc1 (stereo unspecified)
pIC50 [1]: 7.91 | pIC50 [7]: < 6.00 | pIC50 [8]: < 6.00

C=CC(=O)Nc1ccc(-c2c(-c3ccc(S(C)(=N)=O)cc3)c3c(N)ncnc3n2C)cc1 (stereo unspecified)
pIC50 [1]: 6.04 | pIC50 [7]: < 6.00 | pIC50 [8]: < 6.00

C=CC(=O)Nc1ccc(-c2c(-c3ccc(S(=N)(=O)c4ccccc4)cc3)c3c(N)ncnc3n2C)cc1 (stereo unspecified)
pIC50 [1]: 8.06 | pIC50 [7]: < 6.00 | pIC50 [8]: 6.36

C=CC(=O)Nc1ccc(-c2c(-c3ccc(S4(=O)=NCCCCC45CCC5)cc3)c3c(N)ncnc3n2C)cc1 (stereo unspecified)
pIC50 [1]: 8.82 | pIC50 [7]: < 6.00 | pIC50 [8]: 6.76

C=CC(=O)Nc1ccc(-c2c(-c3ccc(S(=O)(CCC)=NC)cc3)c3c(N)ncnc3n2C)cc1 (stereo unspecified)
pIC50 [1]: 7.45 | pIC50 [7]: < 6.00 | pIC50 [8]: < 6.00

C=CC(=O)Nc1ccc(-c2c(-c3ccc(S(=O)(CC)=NC)cc3)c3c(N)ncnc3n2C)cc1 (stereo unspecified)
pIC50 [1]: 6.99 | pIC50 [7]: < 6.00 | pIC50 [8]: < 6.00

C=CC(=O)Nc1ccc(-c2c(-c3ccc(S(=N)(=O)C4CCCCCC4)cc3)c3c(N)ncnc3n2C)cc1 (stereo unspecified)
pIC50 [1]: 8.43 | pIC50 [7]: < 6.00 | pIC50 [8]: 6.47

C=CC(=O)Nc1ccc(-c2c(-c3ccc(S(C)(=O)=NC)cc3)c3c(N)ncnc3n2C)cc1 (stereo unspecified)
pIC50 [1]: 6.47 | pIC50 [7]: < 6.00 | pIC50 [8]: < 6.00

C=C(C)C(=O)Nc1ccc(-c2c(-c3ccc(S4(=O)=NCCCCC4)c(F)c3)c3c(N)ncnc3n2C)cc1 (stereo unspecified)
pIC50 [1]: 6.98 | pIC50 [7]: < 6.00 | pIC50 [8]: < 6.00

C=C(C)C(=O)Nc1ccc(-c2c(-c3ccc(S4(=O)=NCCCCC4)cc3)c3c(N)ncnc3n2C)c(F)c1 (stereo unspecified)
bioavailability [10]: 29% | clearance [11]: 13.2 mL/min/kg | pIC50 [1]: 8.55 | pIC50 [2]: 5.54 | half-life [12]: 52.2 min | MRT last [13]: 87.6 min | pIC50 [3]: 6.11 | inhibition [14]: 5.85% | Cmax [15]: 2910 ng/mL | AUC(0-t) [16]: 1270 ng·h/mL | pIC50 [4]: 5.62 | pIC50 [5]: 8.17 | inhibition [17]: Dose-dependent-effect | inhibition [18]: 14.7% | pIC50 [6]: 7.90 | Cmax [19]: 4700 ng/mL | inhibition [20]: Dose-dependent-effect | inhibition [21]: Dose-dependent-effect | inhibition [22]: 101% | half-life [23]: 64.8 min | inhibition [24]: Dose-dependent-effect | MRT last [25]: 28.8 min | pIC50 [7]: < 6.00 | inhibition [26]: 13.7% | pIC50 [8]: < 6.00 | AUC(0-t) [27]: 3650 ng·h/mL

C=CC(=O)Nc1ccc(-c2c(-c3ccc(S(=N)(=O)CC)cc3)c3c(N)ncnc3n2C)cc1 (stereo unspecified)
pIC50 [1]: 6.50 | pIC50 [7]: < 6.00 | pIC50 [8]: < 6.00

C=CC(=O)Nc1ccc(-c2c(-c3ccc(S(C)(=O)=NCCC)cc3)c3c(N)ncnc3n2C)cc1 (stereo unspecified)
pIC50 [1]: 7.05 | pIC50 [7]: < 6.00 | pIC50 [8]: 6.08

C=C(C)C(=O)Nc1ccc(-c2c(-c3ccc(Oc4nccc(C)n4)c(F)c3)c3c(N)ncnc3n2C)cc1 [LIRAFUGRATINIB]
pIC50 [1]: 8.62 | pIC50 [8]: 6.31
